Data published in PubChem BioAssay AID330 (DTP/NCI, 2004).
Where “and” joins values, the source holds several entries; their conditions need not be identical. Equal entries are not always repeated. Toxic doses and inconclusive results are not listed.

Tested on: P388 leukemia ip, CD2F1 mice, survival T/C
Test: NCI In Vivo Anticancer Drug Screen. Data for tumor model P388 Leukemia (intraperitoneal) in CD2F1 (CDF1) mice
Conditions: endpoint: median survival time, higher = longer survival
Procedure, shortened: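 Mice carrying the transplanted tumor received test compound or vehicle. Survival was recorded in each group, and the value is the treated-group measurement divided by that of the vehicle-treated control group.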

[1] = dose: 50.0 mg/kg/injection, schedule: Q01DX009 (ip), vehicle: saline
[2] = dose: 100.0 mg/kg/injection, schedule: Q01DX009 (ip), vehicle: saline
[3] = dose: 200.0 mg/kg/injection, schedule: Q01DX009 (ip), vehicle: saline
[4] = dose: 12.5 mg/kg/injection, schedule: Q01DX009 (ip), vehicle: saline with Tween-80
[5] = dose: 25.0 mg/kg/injection, schedule: Q01DX009 (ip), vehicle: saline with Tween-80
[6] = dose: 50.0 mg/kg/injection, schedule: Q01DX009 (ip), vehicle: saline with Tween-80
[7] = dose: 12.5 mg/kg/injection, schedule: Q01DX009 (ip), vehicle: other
[8] = dose: 25.0 mg/kg/injection, schedule: Q01DX009 (ip), vehicle: other
[9] = dose: 50.0 mg/kg/injection, schedule: Q01DX009 (ip), vehicle: other
[10] = dose: 100.0 mg/kg/injection, schedule: Q01DX009 (ip), vehicle: other
[11] = dose: 200.0 mg/kg/injection, schedule: Q01DX009 (ip), vehicle: other
[12] = dose: 60.0 mg/kg/injection, schedule: Q01DX005 (ip), vehicle: saline with Tween-80
[13] = dose: 120.0 mg/kg/injection, schedule: Q01DX005 (ip), vehicle: saline with Tween-80
[14] = dose: 240.0 mg/kg/injection, schedule: Q01DX005 (ip), vehicle: saline with Tween-80
[15] = dose: 50.0 mg/kg/injection, schedule: Q01DX005 (ip), vehicle: saline with Tween-80
[16] = dose: 100.0 mg/kg/injection, schedule: Q01DX005 (ip), vehicle: saline with Tween-80
[17] = dose: 200.0 mg/kg/injection, schedule: Q01DX005 (ip), vehicle: saline with Tween-80

In the case of `CCCCCCC(=O)/C=C/c1ccccc1O`, the T/C [1] is reported as 108 % of control, the T/C [2] is reported as 99 % of control and the T/C [3] is reported as 112 % of control.

In the case of `C[Si](C)(OC(=O)N(CCCl)CCCl)O[Si](C)(C)OC(=O)N(CCCl)CCCl`, the T/C (dose: 6.25 mg/kg/injection, schedule: Q01DX009 (ip), vehicle: saline with Tween-80) is reported as 108 % of control, the T/C [4] is reported as 124 % of control and the T/C [5] is reported as 165 % of control. The T/C [6] was 115 % of control.

For `NC(=S)c1cn(C2OC(CO)C(O)C2O)c2ncnc(N)c12` (configuration not stated), the T/C (dose: 0.31 mg/kg/injection, schedule: Q01DX009 (ip), vehicle: saline) was 100 % of control, the T/C (dose: 0.63 mg/kg/injection, schedule: Q01DX009 (ip), vehicle: saline) was 109 % of control and the T/C (dose: 1.4 mg/kg/injection, schedule: Q01DX009 (ip), vehicle: saline with Tween-80) was 119 % of control. The T/C (dose: 5.0 mg/kg/injection, schedule: Q01DX009 (ip), vehicle: saline with Tween-80) was 86 % of control.

With `COC(=O)C(Cc1cnc[nH]1)NC(=O)C(Cc1c[nH]c2ccccc12)NC(=O)OC(C)(C)C` (configuration not stated) the T/C [7] was 100 % of control, the T/C [8] was 96 % of control and the T/C [9] was 96 % of control. For the same molecule, the T/C [10] was 95 % of control and the T/C [11] was 91 % of control.

For `COc1cc(/C=C/C(=O)NCCCCN)ccc1O`, the T/C [12] was 105 % of control, the T/C [13] was 101 % of control and the T/C [14] was 95 % of control.

With `CC(=O)NS(=O)(=O)c1ccc(NCc2c3ccccc3nc3cc(Cl)ccc23)cc1` the T/C [12] was 114 % of control, the T/C [13] was 102 % of control and the T/C [14] was 105 % of control.

`Cc1cccc(NC(=O)CCc2ccc(N3C(N)=NC(N)=NC3(C)C)cc2)c1` was tested, and the T/C [6] was 118 % of control, the T/C (dose: 50.0 mg/kg/injection, schedule: Q04DX003 (ip), vehicle: saline sonified) was 118 % of control and the T/C (dose: 100.0 mg/kg/injection, schedule: Q04DX003 (ip), vehicle: saline sonified) was 113 % of control. The T/C (dose: 132.0 mg/kg/injection, schedule: Q01DX009 (ip), vehicle: saline with Tween-80) was 118 % of control and the T/C (dose: 200.0 mg/kg/injection, schedule: Q04DX003 (ip), vehicle: saline sonified) was 118 % of control.

For `CC(/C=N/Nc1ccccc1)=N\N=c1/scc(-c2ccc(Br)cc2)n1-c1ccc(Cl)cc1`, the T/C (dose: 12.5 mg/kg/injection, schedule: Q01DX001 (ip), vehicle: saline with Tween-80) was 98 % of control, the T/C (dose: 25.0 mg/kg/injection, schedule: Q01DX001 (ip), vehicle: saline with Tween-80) was 89 % of control and the T/C (dose: 50.0 mg/kg/injection, schedule: Q01DX001 (ip), vehicle: saline with Tween-80) was 86 % of control.

In the case of `CCCCN(CCCC)CCNC(c1ccc(OC)cc1)c1ccc(OC)cc1`, the T/C [15] is reported as 98 % of control, the T/C [16] is reported as 93 % of control and the T/C [17] is reported as 96 % of control.

For `COC(=O)C(C)NC(=O)C(Cc1c[nH]c2ccccc12)NC(=O)OC(C)(C)C` (configuration not stated), the T/C [7] was 88 % of control, the T/C [8] was 89 % of control and the T/C [9] was 100 % of control. For the same molecule, the T/C [10] was 101 % of control and the T/C [11] was 117 % of control.

For `CC(=O)/C(=C\c1ccc([N+](=O)[O-])o1)C(=O)CCN(C)C`, the T/C (dose: 7.5 mg/kg/injection, schedule: Q01DX005 (ip), vehicle: Klucel (hydroxypropylcellulose) (HPC)) was 97 % of control and the T/C (dose: 15.0 mg/kg/injection, schedule: Q01DX005 (ip), vehicle: Klucel (hydroxypropylcellulose) (HPC)) was 107 % of control.

With `CCCCCCCCCCCCCCCCCC[N+]1(CC)CCCCC1` the T/C (dose: 0.04 mg/kg/injection, schedule: Q01DX009 (ip), vehicle: saline) was 95 % of control, the T/C (dose: 0.09 mg/kg/injection, schedule: Q01DX009 (ip), vehicle: saline) was 92 % of control and the T/C (dose: 0.19 mg/kg/injection, schedule: Q01DX009 (ip), vehicle: saline) was 103 % of control and 118 % of control. For the same molecule, the T/C (dose: 0.39 mg/kg/injection, schedule: Q01DX009 (ip), vehicle: saline) was 113 % of control and 120 % of control and the T/C (dose: 0.78 mg/kg/injection, schedule: Q01DX009 (ip), vehicle: saline) was 99 % of control.

For `CC1N=C(SCc2ccc(Cl)cc2)N2C(C)N=C(SCc3ccc(Cl)cc3)N12` (configuration not stated), the T/C [1] was 112 % of control, the T/C [2] was 110 % of control and the T/C [3] was 104 % of control.

`COc1ccc(C2CC(=O)N(c3ncccc3C)C(=O)C2)cc1` was tested, and the T/C (dose: 100.0 mg/kg/injection, schedule: Q04DX003 (ip), vehicle: saline) was 93 % of control, the T/C (dose: 200.0 mg/kg/injection, schedule: Q04DX003 (ip), vehicle: saline) was 100 % of control and the T/C (dose: 400.0 mg/kg/injection, schedule: Q04DX003 (ip), vehicle: saline) was 102 % of control.

`CC(C)=CCCC1(C)C=Cc2c(ccc3c(C)coc23)O1` (configuration not stated) was tested, and the T/C [15] was 97 % of control, the T/C [16] was 100 % of control and the T/C [17] was 100 % of control.

For `CCOC1=C(C)N2/C(=C/C(=O)OC)[C@@H]3C[C@@H](C)C[C@]2(O3)S1`, the T/C [12] was 101 % of control, the T/C [13] was 94 % of control and the T/C [14] was 104 % of control.

`Cc1ccc(Sc2cccc3c(C)c4cccc5c4c(c23)C[S+]5c2ccc(C)cc2)cc1` (configuration not stated) was tested, and the T/C (dose: 2.0 mg/kg/injection, schedule: Q01DX009 (ip), vehicle: saline with Tween-80) was 104 % of control and the T/C (dose: 3.0 mg/kg/injection, schedule: Q01DX009 (ip), vehicle: saline with Tween-80) was 122 % of control.

In the case of `Oc1cc2ccccc2c(-c2c(O)c(O)cc3ccccc23)c1O`, the T/C (dose: 25.0 mg/kg/injection, schedule: Q01DX005 (ip), vehicle: saline with Tween-80) is reported as 111 % of control, the T/C [15] is reported as 113 % of control and the T/C (dose: 100.0 mg/kg/injection, schedule: Q01DX001 (ip), vehicle: saline with Tween-80) is reported as 113 % of control and 115 % of control. The T/C [16] was 112 % of control, the T/C (dose: 200.0 mg/kg/injection, schedule: Q01DX001 (ip), vehicle: saline with Tween-80) was 113 % of control and 121 % of control and the T/C (dose: 600.0 mg/kg/injection, schedule: Q01DX001 (ip), vehicle: saline with Tween-80) was 124 % of control.

`NC(=O)CCC(N)C(=O)O` (configuration not stated) was tested, and the T/C [4] was 105 % of control, the T/C [5] was 119 % of control and the T/C [6] was 112 % of control. For the same molecule, the T/C [1] was 113 % of control, the T/C [2] was 101 % of control and 116 % of control and the T/C [3] was 90 % of control and 109 % of control. For the same molecule, the T/C (dose: 400.0 mg/kg/injection, schedule: Q01DX009 (ip), vehicle: saline) was 109 % of control.

`CCN(CC)C(=O)N1C=CC(c2ccccc2)C(C(C)=O)=C1` (configuration not stated) was tested, and the T/C [12] was 91 % of control, the T/C [13] was 103 % of control and the T/C [14] was 101 % of control.

For `COc1ccc(NNc2ccc(OC)cc2)cc1`, the T/C (dose: 50.0 mg/kg/injection, schedule: Q04DX003 (ip), vehicle: saline with Tween-80) was 100 % of control, the T/C (dose: 100.0 mg/kg/injection, schedule: Q04DX003 (ip), vehicle: saline with Tween-80) was 92 % of control and the T/C (dose: 200.0 mg/kg/injection, schedule: Q04DX003 (ip), vehicle: saline with Tween-80) was 92 % of control.

With `CC/C(=C(\c1ccccc1)c1ccc(OCCN(C)C)cc1)c1ccccc1` the T/C (dose: 0.78 mg/kg/injection, schedule: Q01DX009 (ip), vehicle: suspension in saline) was 94 % of control, the T/C (dose: 1.56 mg/kg/injection, schedule: Q01DX009 (ip), vehicle: suspension in saline) was 94 % of control and the T/C (dose: 3.12 mg/kg/injection, schedule: Q01DX009 (ip), vehicle: suspension in saline) was 94 % of control. For the same molecule, the T/C (dose: 6.25 mg/kg/injection, schedule: Q01DX009 (ip), vehicle: suspension in saline) was 98 % of control, the T/C (dose: 12.5 mg/kg/injection, schedule: Q01DX009 (ip), vehicle: Klucel (hydroxypropylcellulose) (HPC)) was 105 % of control and the T/C (dose: 12.5 mg/kg/injection, schedule: Q01DX009 (ip), vehicle: suspension in saline) was 100 % of control. The T/C (dose: 25.0 mg/kg/injection, schedule: Q01DX009 (ip), vehicle: Klucel (hydroxypropylcellulose) (HPC)) was 102 % of control, the T/C (dose: 25.0 mg/kg/injection, schedule: Q01DX009 (ip), vehicle: suspension in saline) was 104 % of control and the T/C (dose: 50.0 mg/kg/injection, schedule: Q01DX004 (ip), vehicle: saline with Tween-80) was 92 % of control. The T/C (dose: 50.0 mg/kg/injection, schedule: Q01DX009 (ip), vehicle: Klucel (hydroxypropylcellulose) (HPC)) was 110 % of control, the T/C (dose: 50.0 mg/kg/injection, schedule: Q01DX009 (ip), vehicle: suspension in saline) was 101 % of control and the T/C (dose: 100.0 mg/kg/injection, schedule: Q01DX004 (ip), vehicle: saline with Tween-80) was 82 % of control. For the same molecule, the T/C (dose: 100.0 mg/kg/injection, schedule: Q01DX009 (ip), vehicle: Klucel (hydroxypropylcellulose) (HPC)) was 117 % of control and the T/C (dose: 100.0 mg/kg/injection, schedule: Q01DX009 (ip), vehicle: suspension in saline) was 92 % of control.
